Data as given in patent publication US10351575B2, “Bicyclic urea, thiourea, guanidine and cyanoguanidine compounds useful for the treatment of pain” (Array BioPharma Inc., priority 2012, dated 2019).

target: His-tagged recombinant human TrkA (Homo sapiens (Human), UniProt P04629); experiment: TrkA LanthaScreen Eu Kinase Binding Assay; conditions: averaged IC50; TR-FRET binding, 60 min, 22° C.; read-out: TrkA Enzyme IC50
Procedure, shortened: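 TR-FRET binding: 5 nM His-tagged human TrkA cytoplasmic domain with 4 nM Alexa-Fluor Tracer 236, 2 nM biotin anti-His and 2 nM Eu-streptavidin. Buffer was 25 mM MOPS pH 7.5, 5 mM MgCl2, 0.005% Triton X-100, 2% DMSO, 60 min at 22° C. IC50 from a four-parameter fit of ratiometric percent of control.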

Sequence of His-tagged recombinant human TrkA (P04629 440-796): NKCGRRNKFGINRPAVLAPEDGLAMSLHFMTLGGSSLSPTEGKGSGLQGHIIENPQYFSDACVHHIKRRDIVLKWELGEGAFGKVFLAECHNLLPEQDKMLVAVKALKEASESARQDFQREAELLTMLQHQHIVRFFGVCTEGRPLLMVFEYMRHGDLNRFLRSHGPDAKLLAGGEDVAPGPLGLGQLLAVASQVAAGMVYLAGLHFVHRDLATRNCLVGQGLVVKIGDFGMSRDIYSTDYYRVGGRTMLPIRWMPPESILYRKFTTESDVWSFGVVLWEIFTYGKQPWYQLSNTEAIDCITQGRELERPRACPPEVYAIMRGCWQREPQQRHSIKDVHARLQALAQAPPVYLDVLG

| IC50 [nM] | SMILES |
| --- | --- |
| < 100 | Cc1c(-c2cnn(C)c2)nn(-c2ccccc2)c1NC(=O)NC1CC2(CCC2)Oc2ccc(Br)cc21 (centres unmarked) [Example 34, 1-(6-bromospiro[chroman-2,1′-cyclobutan]-4-yl)-3-(1′,4-dimethyl-1-phenyl-1H,1′H-[3,4′-bipyrazol]-5-yl)urea] |
| < 100 | COCc1ccc2c(c1)C(NC(=O)Nc1c(C)c(-c3cnn(C)c3)nn1-c1ccccc1)CC1(CCC1)O2 (centres unmarked) [Example 35A, 1-(1′,4-dimethyl-1-phenyl-1H,1′H-[3,4′-bipyrazol]-5-yl)-3-(6-(methoxymethyl)spiro[chroman-2,1′-cyclobutan]-4-yl)urea] |
| 100 to 1000 | Cc1c(-c2cnn(C)c2)nn(-c2ccccc2)c1NC(=O)NC1CC2(CCC2)Oc2ccccc21 (centres unmarked) [Example 35B, 1-(1′,4-dimethyl-1-phenyl-1H,1′H-[3,4′-bipyrazol]-5-yl)-3-(spiro[chroman-2,1′-cyclobutan]-4-yl)urea] |
| 100 to 1000 | Cc1c(-c2cnn(C)c2)nn(-c2ccccc2)c1NC(=O)NC1CCN(C)c2ccccc21 (centres unmarked) [Example 40, 1-(1′,4-dimethyl-1-phenyl-1H,1′H-[3,4′-bipyrazol]-5-yl)-3-(1-methyl-1,2,3,4-tetrahydroquinolin-4-yl)urea] |
| < 100 | CCN1CCC(NC(=O)Nc2c(C)c(-c3ccc(=O)n(C)c3)nn2-c2ccccc2)c2ccccc21 (centres unmarked) [Example 42, 1-(1-ethyl-1,2,3,4-tetrahydroquinolin-4-yl)-3-(4-methyl-3-(1-methyl-6-oxo-1,6-dihydropyridin-3-yl)-1-phenyl-1H-pyrazol-5-yl)urea] |
| < 100 | CCN1CCC(NC(=O)Nc2c(C)c(-c3ccc(=O)n(C)c3)nn2-c2ccccc2)c2cc(Cl)ccc21 (centres unmarked) [Example 45, 1-(6-chloro-1-ethyl-1,2,3,4-tetrahydroquinolin-4-yl)-3-(4-methyl-3-(1-methyl-6-oxo-1,6-dihydropyridin-3-yl)-1-phenyl-1H-pyrazol-5-yl)urea] |
| 100 to 1000 | CO[C@H]1Cc2ccccc2[C@@H]1NC(=O)Nc1c2c(nn1-c1ccccc1)CCC2 [Example 47, 1-((1S,2S)-2-methoxy-2,3-dihydro-1H-inden-1-yl)-3-(2-phenyl-2,4,5,6-tetrahydrocyclopenta[c]pyrazol-3-yl)urea] |
| 100 to 1000 | COCCO[C@H]1Cc2ccccc2[C@@H]1NC(=O)Nc1c2c(nn1-c1ccccc1)CCC2 [Example 48, 1-((1S,2S)-2-(2-methoxyethoxy)-2,3-dihydro-1H-inden-1-yl)-3-(2-phenyl-2,4,5,6-tetrahydrocyclopenta[c]pyrazol-3-yl)urea] |
| 100 to 1000 | COCCO[C@H]1Cc2ccccc2[C@@H]1NC(=O)Nc1c(Br)c(C)nn1-c1ccccc1 [Example 52, 1-(4-bromo-3-methyl-1-phenyl-1H-pyrazol-5-yl)-3-((1S,2S)-2-(2-methoxyethoxy)-2,3-dihydro-1H-inden-1-yl)urea] |
| 100 to 1000 | CCOc1nn(-c2ccccc2)c(NC(=O)NC2CCc3ccccc32)c1C (centres unmarked) [Example 53, 1-(2,3-dihydro-1H-inden-1-yl)-3-(3-ethoxy-4-methyl-1-phenyl-1H-pyrazol-5-yl)urea] |
| < 100 | CNC(=O)c1nn(-c2ccccc2)c(NC(=O)N[C@@H]2c3ccccc3C3(CC3)[C@H]2O)c1C [Example 59, 215-(3-(trans-2′-hydroxy-2′,3′-dihydrospiro[cyclopropane-1,1′-inden]-3′-yl)ureido)-N,4-dimethyl-1-phenyl-1H-pyrazole-3-carboxamide] |
| < 100 | Cc1ncc(-c2nn(-c3ccccc3)c(NC(=O)N[C@@H]3c4ccccc4C[C@H]3O)c2C)cn1 [Example 66, 1-((1R,2R)-2-hydroxy-2,3-dihydro-1H-inden-1-yl)-3-(4-methyl-3-(2-methylpyrimidin-5-yl)-1-phenyl-1H-pyrazol-5-yl)urea] |
| < 100 | CCOc1ncc(-c2nn(-c3ccccc3)c(NC(=O)N[C@@H]3c4ccccc4C[C@H]3O)c2C)cn1 [Example 67, 1-(3-(2-ethoxypyrimidin-5-yl)-4-methyl-1-phenyl-1H-pyrazol-5-yl)-3-((1R,2R)-2-hydroxy-2,3-dihydro-1H-inden-1-yl)urea] |
| < 100 | Cc1c(-c2cc(C)c(=O)n(C)c2)nn(-c2ccccc2)c1NC(=O)N[C@@H]1c2ccccc2C[C@H]1O [Example 69, 1-(3-(1,5-dimethyl-6-oxo-1,6-dihydropyridin-3-yl)-4-methyl-1-phenyl-1H-pyrazol-5-yl)-3-((1R,2R)-2-hydroxy-2,3-dihydro-1H-inden-1-yl)urea] |
| < 100 | Cc1c(-c2cnn(C)c2)nn(-c2ccccc2)c1NC(=O)N[C@@H]1c2cc(Cl)ccc2C[C@H]1O [Example 70, 1-((1,2-trans)-6-chloro-2-hydroxy-2,3-dihydro-1H-inden-1-yl)-3-(1′,4-dimethyl-1-phenyl-1H,1′H-[3,4′-bipyrazol]-5-yl)urea] |
| < 100 | Cc1c(-c2cnn(C)c2)nn(-c2ccccc2)c1NC(=O)N[C@@H]1c2ccccc2C(C)(C)[C@H]1O [Example 72] |

The next lines start with the compound.

| SMILES | IC50 [nM] |
| --- | --- |
| Cc1c(-c2cnn(C)c2)nn(-c2ccccc2)c1NC(=O)NC1CCC(=O)c2ccccc21 (centres unmarked) [Example 36, 1-(1′,4-dimethyl-1-phenyl-1H,1′H-[3,4′-bipyrazol]-5-yl)-3-(4-oxo-1,2,3,4-tetrahydronaphthalen-1-yl)urea] | 100 to 1000 |
| Cc1c(-c2cnn(C)c2)nn(-c2ccccc2)c1NC(=O)NC1CCC(C)(O)c2ccccc21 (centres unmarked) [Example 37, 1-(1′,4-dimethyl-1-phenyl-1H,1′H-[3,4′-bipyrazol]-5-yl)-3-(4-hydroxy-4-methyl-1,2,3,4-tetrahydronaphthalen-1-yl)urea] | 100 to 1000 |
| Cc1c(-c2cnn(C)c2)nn(-c2ccccc2)c1NC(=O)Nc1cn(CC(F)(F)F)c(=O)c2ccccc12 [Example 38, 1-(1′,4-dimethyl-1-phenyl-1H,1′H-[3,4′-bipyrazol]-5-yl)-3-(1-oxo-2-(2,2,2-trifluoroethyl)-1,2-dihydroisoquinolin-4-yl)urea] | 100 to 1000 |
| COc1nn(-c2ccccc2)c(NC(=O)NC2CCN(C)c3ccccc32)c1C (centres unmarked) [Example 39, 1-(3-methoxy-4-methyl-1-phenyl-1H-pyrazol-5-yl)-3-(1-methyl-1,2,3,4-tetrahydroquinolin-4-yl)urea] | < 100 |
| Cc1c(-c2ccc(=O)n(C)c2)nn(-c2ccccc2)c1NC(=O)NC1CCN(C)c2ccccc21 (centres unmarked) [Example 41, 1-(1-methyl-1,2,3,4-tetrahydroquinolin-4-yl)-3-(4-methyl-3-(1-methyl-6-oxo-1,6-dihydropyridin-3-yl)-1-phenyl-1H-pyrazol-5-yl)urea] | < 100 |
| Cc1c(-c2ccc(=O)n(C)c2)nn(-c2ccccc2)c1NC(=O)NC1CCN(C)c2c(F)cccc21 (centres unmarked) [Example 43, 1-(8-fluoro-1-methyl-1,2,3,4-tetrahydroquinolin-4-yl)-3-(4-methyl-3-(1-methyl-6-oxo-1,6-dihydropyridin-3-yl)-1-phenyl-1H-pyrazol-5-yl)urea] | 100 to 1000 |
| Cc1c(-c2ccc(=O)n(C)c2)nn(-c2ccccc2)c1NC(=O)NC1CCN(C)c2c(F)cc(Cl)cc21 (centres unmarked) [Example 44, 1-(6-chloro-8-fluoro-1-methyl-1,2,3,4-tetrahydroquinolin-4-yl)-3-(4-methyl-3-(1-methyl-6-oxo-1,6-dihydropyridin-3-yl)-1-phenyl-1H-pyrazol-5-yl)urea] | < 100 |
| CCN1CCC(NC(=O)Nc2c(C)c(OC)nn2-c2ccccc2)c2cc(Cl)ccc21 (centres unmarked) [Example 46, 1-(6-chloro-1-ethyl-1,2,3,4-tetrahydroquinolin-4-yl)-3-(3-methoxy-4-methyl-1-phenyl-1H-pyrazol-5-yl)urea] | < 100 |
| CCOc1nn(-c2ccccc2)c(NC(=O)N[C@H]2c3ccccc3C[C@@H]2OCCOC)c1C [Example 49, 1-(3-ethoxy-4-methyl-1-phenyl-1H-pyrazol-5-yl)-3-((1S,2S)-2-(2-methoxyethoxy)-2,3-dihydro-1H-inden-1-yl)urea] | 100 to 1000 |
| COCCO[C@@H]1Cc2ccccc2[C@H]1NC(=O)Nc1c2c(nn1-c1ccccc1)CCC2 [Example 50, 1-((1R,2R)-2-(2-methoxyethoxy)-2,3-dihydro-1H-inden-1-yl)-3-(2-phenyl-2,4,5,6-tetrahydrocyclopenta[c]pyrazol-3-yl)urea] | 100 to 1000 |
| COCCO[C@H]1Cc2ccccc2[C@@H]1NC(=O)Nc1c(C)c(-c2cnn(C)c2)nn1-c1ccccc1 [Example 51, 1-(1′,4-dimethyl-1-phenyl-1H,1′H-[3,4′-bipyrazol]-5-yl)-3-((1S,2S)-2-(2-methoxyethoxy)-2,3-dihydro-1H-inden-1-yl)urea] | 100 to 1000 |
| CCOc1nn(-c2ccccc2)c(NC(=O)N[C@H]2CCc3ccccc32)c1C [Example 54, (S)-1-(2,3-dihydro-1H-inden-1-yl)-3-(3-ethoxy-4-methyl-1-phenyl-1H-pyrazol-5-yl)urea] | 100 to 1000 |
| Cc1c(-c2cnn(C)c2)nn(-c2ccccc2)c1NC(=O)N[C@@H]1c2ccccc2C[C@H]1O [Example 65, 1-(1′,4-dimethyl-1-phenyl-1H,1′H-[3,4′-bipyrazol]-5-yl)-3-((1R,2R)-2-hydroxy-2,3-dihydro-1H-inden-1-yl)urea] | < 100 |
| COc1ncc(-c2nn(-c3ccccc3)c(NC(=O)N[C@@H]3c4ccccc4C[C@H]3O)c2C)cn1 [Example 68, 1-((1R,2R)-2-hydroxy-2,3-dihydro-1H-inden-1-yl)-3-(3-(2-methoxypyrimidin-5-yl)-4-methyl-1-phenyl-1H-pyrazol-5-yl)urea] | < 100 |
| Cc1ncc(-c2nn(-c3ccccc3)c(NC(=O)N[C@@H]3c4cc(Cl)ccc4C[C@H]3O)c2C)cn1 [Example 71, 1-((1,2-trans)-6-chloro-2-hydroxy-2,3-dihydro-1H-inden-1-yl)-3-(4-methyl-3-(2-methylpyrimidin-5-yl)-1-phenyl-1H-pyrazol-5-yl)urea] | < 100 |
| Cc1ncc(-c2nn(-c3ccccc3)c(NC(=O)N[C@@H]3c4ccccc4C(C)(C)[C@H]3O)c2C)cn1 [Example 73, 1-((1,2-trans)-2-hydroxy-3,3-dimethyl-2,3-dihydro-1H-inden-1-yl)-3-(4-methyl-3-(2-methylpyrimidin-5-yl)-1-phenyl-1H-pyrazol-5-yl)urea] | < 100 |
